According to patent US20250171404A1, “PCNA INHIBITORS AND USES THEREOF” (CITY OF HOPE, priority 2022, published 2025):
Where two headings read alike, the source gives them in different places.

Experiments:
A375 = assay: Cell growth IC50, screening of AOH1160 analogs; assay type: cell-based; conditions: Homo sapiens, A-375
Protocol: (§1) FIG. 29. IC50 data for select compounds. The indicated cell lines were seeded at 10^4 cells per well in a 96 well plate. After allowing to attach to the plate overnight, cells were treated with various concentrations of the indicated compounds in triplicates for 72 hrs. The cell growth was measured by an SRB assay. The cell abundances under each treatment condition relative to the baseline were averaged and graphed ±S.D. The baseline is defined as the median value of the cell abundances under the treatment by the two lowest compound concentrations. The IC50 was calculated by the Prism program.

SK-N-AS = assay: Cell growth IC50, screening of AOH1160 analogs; assay type: cell-based; conditions: Homo sapiens
Protocol: as §1

HCT-116 = assay: Cell growth IC50, screening of AOH1160 analogs; assay type: cell-based; conditions: Homo sapiens, HCT-116; read-out: IC50 values
Protocol: as §1

OVCAR8 = assay: Cell growth IC50, screening of AOH1160 analogs; assay type: cell-based; conditions: Homo sapiens, OVCAR-8; OVCAR8; read-out: IC50 values
Protocol: as §1

RKO = assay: Cell growth IC50, screening of AOH1160 analogs; assay type: cell-based; conditions: Homo sapiens, read-out: IC50 values
Protocol: as §1

[1] = system: SK-N-AS derived xenograft tumors; assay: Survival of mice bearing xenograft tumors, AOH1996 with CPT-11; assay type: in vivo, ES1^e/SCID mice; conditions: AOH1996 80 mg/kg oral 8 d; CPT-11 15 mg/kg i.p. 3 d; vs untreated
Protocol: FIGS. 4A-4H. Pharmacokinetics and anti-tumor growth activity of AOH1996 in vivo. FIG. 4A: After oral administration, the plasma concentrations of AOH1996 from three male and three female ES1^e/SCID mice at the indicated time points were averaged and graphed ±S.D. The inset contains PK parameters determined by a standard noncompartmental method. FIG. 4B: A similar PK study of AOH1996 was performed in dogs. FIGS. 4C-4E: Mice bearing the xenograft tumors of neuroblastoma (FIG. 4C: SK-N-BE(2)c), breast cancer (FIG. 4D: MDA-MB-468), and small-cell lung cancer (FIG. 4E: H82) were given vehicle only (black) or 40 mg/kg of AOH1996 (grey) twice daily immediately after the first measurement. Tumor sizes were measured by a dial caliper each week. Tumor volumes (0.4×L×W^2) were averaged and graphed ±S.E. (*, P<0.01). FIG. 4F: Animal body weight was monitored throughout the studies as an indicator of toxicity. […] FIG. 4G: The levels of phosphor-Chk1 (pChk1) and γH2A.X in SK-N-BE(2)c derived tumor samples were analyzed by IHC. […] The p values determined by the Log-rank (Mantel-Cox) test between combination treatment and each of the control groups are p=0.0003 (Combination vs. NoRx), p=0.005 (Combination vs. AOH1996 alone), and p=0.024 (Combination vs. CPT-11 alone). […]
In vivo tumor model. […] Tumor size and animal weight were measured weekly. […]

Hela = assay: Cell growth IC50, screening of AOH1160 analogs; assay type: cell-based; conditions: Homo sapiens
Protocol: as §1

H1753 = assay: Cell growth IC50, screening of AOH1160 analogs; assay type: cell-based
Protocol: as §1

H358 = assay: Cell growth IC50, screening of AOH1160 analogs; assay type: cell-based; conditions: Homo sapiens, NCI-H358
Protocol: as §1

MDA-MB-468 = assay: Cell growth IC50, screening of AOH1160 analogs; assay type: cell-based; conditions: Homo sapiens, MDA-MB-468; read-out: IC50 values
Protocol: as §1

SK-N-BE(2)c = assay: Cell growth IC50, screening of AOH1160 analogs; assay type: cell-based; conditions: Homo sapiens
Protocol: as §1

SK-N-DZ = assay: Cell growth IC50, screening of AOH1160 analogs; assay type: cell-based; conditions: Homo sapiens
Protocol: as §1

A549 = assay: Cell growth IC50, screening of AOH1160 analogs; assay type: cell-based; conditions: Homo sapiens
Protocol: as §1

A673 = assay: Cell growth IC50, screening of AOH1160 analogs; assay type: cell-based; conditions: Homo sapiens
Protocol: as §1

caPCNA = caPCNA (Homo sapiens, UniProt P12004); assay: Molecular probe binding in vitro
caPCNA, sequence (P12004 whole entry): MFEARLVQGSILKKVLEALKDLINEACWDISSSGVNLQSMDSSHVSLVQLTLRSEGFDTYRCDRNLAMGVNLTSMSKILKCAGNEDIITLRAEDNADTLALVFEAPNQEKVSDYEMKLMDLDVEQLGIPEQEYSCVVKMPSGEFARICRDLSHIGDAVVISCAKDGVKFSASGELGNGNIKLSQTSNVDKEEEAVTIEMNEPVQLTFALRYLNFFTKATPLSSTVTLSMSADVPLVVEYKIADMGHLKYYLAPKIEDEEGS

O=C(CNC(=O)c1cccc2ccccc12)Nc1ccccc1Sc1ccc(F)cc1 [AOH1996S-4F, N-(2-((2-((4-fluorophenyl)thio)phenyl)amino)-2-oxoethyl)-1-naphthamide] gave an IC50 (A375) of 0.35 µM and an IC50 (SK-N-AS; read-out: IC50 values) of 0.37 µM.
In the case of O=C(CNC(=O)c1cccc2ccccc12)Nc1ccccc1Sc1cccc(F)c1 [AOH1996S-3F, N-(2-((2-((3-fluorophenyl)thio)phenyl)amino)-2-oxoethyl)-1-naphthamide], the IC50 (HCT-116) is reported as 2.21 µM, the IC50 (OVCAR8) is reported as 1.6 µM and the IC50 (RKO) is reported as 2.32 µM.
In the case of CCc1c2c(nc3ccc(OC(=O)N4CCC(N5CCCCC5)CC4)cc13)-c1cc3c(c(=O)n1C2)COC(=O)[C@]3(O)CC [CPT-11, reference compound], the “increase of median survival” value [1] is reported as 34.6%.
With COc1cccc(Sc2ccccc2NC(=O)CNC(=O)c2cccc3ccccc23)c1 [AOH1996S, N-(2-((2-((3-methoxyphenyl)thio)phenyl)amino)-2-oxoethyl)-1-naphthamide] the IC50 (A375) was 0.17 µM and the IC50 (Hela; HeLa, read-out: IC50 values) was 0.37 µM.
In the case of COc1cccc(Oc2ccccc2NC(=O)[C@H](C)NC(=O)c2cccc3ccccc23)c1 [AOH1996LA, (S)—N-(1-((2-(3-methoxyphenoxy)phenyl)amino)-1-oxopropan-2-yl)-1-naphthamide], the IC50 (H1753; FIG. 26, H1752, read-out: IC50) is reported as 1.6 µM, the IC50 (H1753; H1753, read-out: IC50 values) is reported as 1.6 µM and the IC50 (H358; FIG. 26, H358, read-out: IC50) is reported as 1.8 µM. The IC50 (H358; read-out: IC50 values) was 1.8 µM, the IC50 (MDA-MB-468) was 2.3 µM and the IC50 (SK-N-AS; FIG. 26, AK-N-AS, read-out: IC50) was 1.5 µM. The IC50 (SK-N-AS; read-out: IC50 values) was 1.5 µM.
In the case of O=C(CNC(=O)c1cccc2ccccc12)Nc1c(Cl)cccc1Oc1ccccc1 [AOH1160-2-C1], the IC50 (SK-N-AS; read-out: IC50 values) is reported as > 10 µM, the IC50 (SK-N-BE(2)c) is reported as > 10 µM and the IC50 (SK-N-DZ) is reported as > 10 µM.
COc1cccc(Oc2ccccc2NC(=O)CNC(=O)c2c(C)cc(C)cc2C)c1 [AOH1996TMB, N-(2-((2-(3-methoxyphenoxy)phenyl)amino)-2-oxoethyl)-2,4,6-trimethylbenzamide] showed an IC50 (A549; FIG. 27, read-out: IC50) of 4.7 µM, an IC50 (A549; read-out: IC50 values) of 4.7 µM and an IC50 (A673; FIG. 27, read-out: IC50) of 5.5 µM. The IC50 (A673; read-out: IC50 values) was 5.5 µM, the IC50 (Hela; HeLa, read-out: IC50 values) was 6.5 µM and the IC50 (Hela; FIG. 27, Hela, read-out: IC50) was 6.5 µM.
For NCCCC[C@H](N)C(=O)O [Lysine], the “binding to caPCNA as molecular probe” value (caPCNA) was “bound caPCNA tightly”.
For N[C@@H](CCC(=O)O)C(=O)O [Glutamic acid], the “binding to caPCNA as molecular probe” value (caPCNA) was “bound caPCNA tightly”.
